Data published in ChEMBL document CHEMBL2074367, “Characterization of a novel bisacridone and comparison with PSC 833 as a potent and poorly reversible modulator of P-glycoprotein” (Mol Pharmacol, 1997).

Molecular target: ATP-dependent translocase ABCB1 (Homo sapiens, UniProt P08183)
Assay: TP_TRANSPORTER: increase in Vinblastine intracellular accumulation (Vinblastine: 0.0375 uM, PBA: 1 uM) in KB8-5 cells
Assay type: functional, cell-based
Conditions: kb8-5, 1 µM

ATP-dependent translocase ABCB1, sequence (P08183 whole entry): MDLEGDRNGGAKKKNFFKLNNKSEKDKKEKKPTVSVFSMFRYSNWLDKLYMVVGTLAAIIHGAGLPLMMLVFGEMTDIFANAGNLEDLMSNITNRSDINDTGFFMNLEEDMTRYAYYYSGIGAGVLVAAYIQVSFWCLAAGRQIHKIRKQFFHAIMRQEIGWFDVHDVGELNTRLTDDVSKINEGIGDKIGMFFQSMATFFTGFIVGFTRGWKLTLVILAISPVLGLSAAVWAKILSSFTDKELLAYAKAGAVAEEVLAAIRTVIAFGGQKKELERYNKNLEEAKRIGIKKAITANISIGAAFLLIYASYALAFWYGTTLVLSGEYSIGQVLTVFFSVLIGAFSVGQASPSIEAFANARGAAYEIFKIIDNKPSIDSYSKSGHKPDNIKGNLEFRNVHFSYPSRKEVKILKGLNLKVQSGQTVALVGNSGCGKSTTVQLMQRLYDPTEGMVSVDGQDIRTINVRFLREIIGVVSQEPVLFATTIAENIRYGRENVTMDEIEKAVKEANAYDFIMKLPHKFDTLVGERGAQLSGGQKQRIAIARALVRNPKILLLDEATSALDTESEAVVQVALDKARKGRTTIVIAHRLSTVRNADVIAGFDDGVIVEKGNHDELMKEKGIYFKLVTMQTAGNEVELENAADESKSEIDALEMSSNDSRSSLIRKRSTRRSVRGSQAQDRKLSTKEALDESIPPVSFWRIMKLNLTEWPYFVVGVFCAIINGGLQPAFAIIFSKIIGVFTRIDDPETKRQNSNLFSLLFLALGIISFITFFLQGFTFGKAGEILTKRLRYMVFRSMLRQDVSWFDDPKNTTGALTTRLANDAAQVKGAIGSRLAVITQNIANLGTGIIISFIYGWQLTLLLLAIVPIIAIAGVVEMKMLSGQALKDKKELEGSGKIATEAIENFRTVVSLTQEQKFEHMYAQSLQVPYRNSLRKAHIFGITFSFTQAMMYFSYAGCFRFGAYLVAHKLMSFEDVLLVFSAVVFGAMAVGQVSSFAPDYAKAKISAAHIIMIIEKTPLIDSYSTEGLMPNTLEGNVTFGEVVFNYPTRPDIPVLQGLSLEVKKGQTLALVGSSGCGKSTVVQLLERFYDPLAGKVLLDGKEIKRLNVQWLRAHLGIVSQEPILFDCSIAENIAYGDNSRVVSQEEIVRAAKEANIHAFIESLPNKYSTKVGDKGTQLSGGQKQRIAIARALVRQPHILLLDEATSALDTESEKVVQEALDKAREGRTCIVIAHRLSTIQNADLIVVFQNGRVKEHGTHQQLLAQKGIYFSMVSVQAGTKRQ

Inhibition: inhibitor [800-900 % inhibition]
Structure (SMILES): O=c1c2ccccc2n(CCCn2c3ccccc3c(=O)c3ccccc32)c2ccccc12
